Measured values reported in the supplement of paper PMC10307832.

How the values were obtained:
Experiment in all cases: relative viability (nuclei count vs DMSO), 5 days (fraction); higher = more cells survive
Tivozanib = compound: COc1cc2nccc(Oc3ccc(NC(=O)Nc4cc(C)on4)c(Cl)c3)c2cc1OC [Tivozanib]
Procedure, shortened: (§1)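 Viability was defined as treated-well nuclei divided by vehicle-well nuclei, with the median taken over replicate plates. Cells from lung cancer lines sat overnight at 37 °C in 1536-well plates, received five √10-spaced library-drug doses by pinning on vehicle-anchored plates, and grew 5 days without medium change before one-step fixation, permeabilisation and Hoechst staining, 4× imaging and MetaXpress nuclear counts. Only plates with control CV under 25% and at least one doubling were kept.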

CPI-613 = compound: O=C(O)CCCCC(CCSCc1ccccc1)SCc1ccccc1 [CPI-613]
Procedure, shortened: as §1

JQ1 = compound: Cc1sc2c(c1C)C(c1ccc(Cl)cc1)=N[C@@H](CC(=O)OC(C)(C)C)c1nnc(C)n1-2 [JQ1]
Procedure, shortened: as §1

Cytarabine = compound: Nc1ccn([C@@H]2O[C@H](CO)[C@@H](O)[C@@H]2O)c(=O)n1 [Cytarabine]
Procedure, shortened: as §1

Docetaxel = compound: CC(=O)O[C@@]12CO[C@@H]1C[C@H](O)[C@@]1(C)C(=O)[C@H](O)C3=C(C)[C@@H](OC(=O)[C@H](O)[C@@H](NC(=O)OC(C)(C)C)c4ccccc4)C[C@@](O)([C@@H](OC(=O)c4ccccc4)[C@H]21)C3(C)C [Docetaxel]
Procedure, shortened: as §1

Pimozide = compound: O=c1[nH]c2ccccc2n1C1CCN(CCCC(c2ccc(F)cc2)c2ccc(F)cc2)CC1 [Pimozide]
Procedure, shortened: as §1

[1] = compound: Cc1cnc(-c2cnc(NCCNc3ccc(C#N)cn3)nc2-c2ccc(Cl)cc2Cl)[nH]1
Procedure, shortened: as §1

Cell Line | relative viability (Tivozanib; 0.005 µM) | relative viability (Tivozanib; 0.01581 µM) | relative viability (Tivozanib; 0.05 µM) | relative viability (Tivozanib; 0.1581 µM) | relative viability (Tivozanib; 0.5 µM) | relative viability (CPI-613; 5 µM) | relative viability (CPI-613; 15.81 µM) | relative viability (CPI-613; 50 µM) | relative viability (CPI-613; 158.11 µM) | relative viability (CPI-613; 500 µM) | relative viability (JQ1; 0.04 µM) | relative viability (JQ1; 0.1265 µM) | relative viability (JQ1; 0.4 µM) | relative viability (JQ1; 1.265 µM) | relative viability (JQ1; 4 µM) | relative viability (Cytarabine; 0.005 µM) | relative viability (Cytarabine; 0.01581 µM) | relative viability (Cytarabine; 0.05 µM) | relative viability (Cytarabine; 0.1581 µM) | relative viability (Cytarabine; 0.5 µM) | relative viability (Docetaxel; 0.0002 µM) | relative viability (Docetaxel; 0.000632 µM) | relative viability (Docetaxel; 0.002 µM) | relative viability (Docetaxel; 0.006325 µM) | relative viability (Docetaxel; 0.02 µM) | relative viability (Pimozide; 0.08 µM) | relative viability (Pimozide; 0.253 µM) | relative viability (Pimozide; 0.8 µM) | relative viability (Pimozide; 2.53 µM) | relative viability (Pimozide; 8 µM) | relative viability ([1]; 0.08 µM) | relative viability ([1]; 0.253 µM) | relative viability ([1]; 0.8 µM) | relative viability ([1]; 2.53 µM)
IA-LM | 0.865 | 1.01 | 0.909 | 0.767 | 0.845 | 0.818 | 0.779 | 0.85 | 0.525 | 0.671 | 0.907 | 0.419 | 0.165 | 0.11 | 0.085 | 0.962 | 0.814 | 0.662 | 0.38 | 0.226 | 0.704 | 0.231 | 0.131 | 0.0652 | 0.0513 | 0.951 | 1.02 | 0.929 | 1.02 | 0.966 | 1.02 | 0.8 | 1.02 | 0.916
NCI-H2170 | 0.928 | 0.923 | 0.956 |  | 1.02 | 0.939 | 0.903 | 0.998 | 0.802 | 0.301 | 1 | 0.778 | 0.908 | 0.711 | 0.503 | 0.822 | 0.741 | 0.688 | 0.463 | 0.402 | 1.01 | 0.999 | 0.828 | 0.271 | 0.201 | 1.05 | 0.94 | 0.956 | 0.945 | 0.947 | 1.1 | 0.655 | 0.989 | 0.958
BEN | 0.922 | 1.05 | 1.02 |  | 0.889 | 0.988 | 0.843 | 0.96 | 0.799 | 0.811 | 0.809 | 0.848 | 0.594 | 0.44 | 0.387 | 0.892 | 0.794 | 0.617 | 0.473 | 0.335 | 0.951 | 1.01 | 0.593 | 0.291 | 0.198 | 0.96 | 1.07 | 0.975 | 0.925 | 1.04 | 1.05 | 0.991 | 0.933 | 0.984
EBC-1 | 0.951 | 0.96 | 0.979 | 0.929 | 0.918 | 0.962 | 0.823 | 0.828 | 0.661 | 0.556 | 0.922 | 0.596 | 0.372 | 0.138 | 0.141 | 0.817 | 0.816 | 0.623 | 0.478 | 0.336 | 0.89 | 0.693 | 0.241 | 0.25 | 0.152 | 0.996 | 0.94 | 0.899 | 0.901 | 0.942 | 0.982 | 0.914 | 0.975 | 0.987
NCI-H650 | 0.86 | 0.979 | 0.935 | 0.607 | 0.706 | 0.937 | 0.803 | 1.05 | 0.621 | 0.716 | 0.946 | 0.628 | 0.78 | 0.365 | 0.298 | 0.893 | 0.581 | 0.328 | 0.234 | 0.205 | 0.871 | 0.456 | 0.343 | 0.257 | 0.187 | 0.969 | 0.914 | 0.839 | 0.997 | 1.12 | 1.03 | 1.01 | 0.797 | 0.783
NCI-H2009 | 0.955 | 1 | 1.02 | 0.994 | 0.91 | 0.995 | 0.939 | 0.923 | 0.24 | 0.0296 | 0.96 | 0.645 | 0.574 | 0.297 | 0.313 | 1.01 | 1.01 | 0.997 | 0.724 | 0.398 | 0.955 | 1 | 0.944 | 0.456 | 0.239 | 0.997 | 0.985 | 1.01 | 0.909 | 0.926 | 1.01 | 0.93 | 1.08 | 0.943
SW 1573 | 0.969 | 0.914 | 1.01 | 0.903 | 0.829 | 0.917 | 0.851 | 0.958 | 0.482 | 0.314 | 0.869 | 0.791 | 0.637 | 0.365 | 0.345 | 0.969 | 0.87 | 0.725 | 0.38 | 0.157 | 0.872 | 0.485 | 0.252 | 0.205 | 0.152 | 0.923 | 1.02 | 0.945 | 0.82 | 0.637 | 1.1 | 0.999 | 0.997 | 0.6
PC-3 [JPC-3] | 1.03 | 1.05 | 1.06 | 1.05 | 0.912 | 1.01 | 0.952 | 1.01 | 0.789 | 0.358 | 0.999 | 0.997 | 0.762 | 0.675 | 0.606 | 0.945 | 0.971 | 0.773 | 0.618 | 0.631 | 0.98 | 1.01 | 0.585 | 0.344 | 0.188 |  | 0.984 | 0.945 | 1.01 | 0.894 | 1 | 0.909 | 1.04 | 1.03
NCI-H441 | 0.949 | 0.93 | 0.919 | 0.895 | 0.766 | 0.954 | 1.01 | 0.924 | 0.4 | 0.0254 | 1.01 | 0.813 | 0.719 | 0.598 | 0.352 | 0.962 | 0.973 | 0.965 | 0.365 | 0.367 | 0.977 | 0.747 | 0.288 | 0.26 | 0.13 | 1.12 | 0.9 | 0.804 | 0.883 | 0.776 | 1.01 | 0.768 | 0.95 | 0.867
EPLC-272H | 0.908 | 0.885 | 0.947 | 0.731 | 0.635 | 0.9 | 0.834 | 0.839 | 0.783 | 0.449 | 0.801 | 0.797 | 0.789 | 0.433 | 0.289 | 0.768 | 0.572 | 0.487 | 0.331 | 0.173 | 0.878 | 0.533 | 0.244 | 0.104 | 0.071 | 0.852 | 0.896 | 0.842 | 0.7 | 0.61 | 1.02 | 0.836 | 0.937 | 0.962
